How the values were obtained:
mu opioid receptor = mu opioid receptor (Homo sapiens, UniProt P35372); test: Filtration binding assay: mu opioid receptor
kappa opioid receptor = kappa opioid receptor (Homo sapiens, UniProt P41145); test: Filtration binding assay: kappa opioid receptor
Sequence of kappa opioid receptor (P41145 whole entry): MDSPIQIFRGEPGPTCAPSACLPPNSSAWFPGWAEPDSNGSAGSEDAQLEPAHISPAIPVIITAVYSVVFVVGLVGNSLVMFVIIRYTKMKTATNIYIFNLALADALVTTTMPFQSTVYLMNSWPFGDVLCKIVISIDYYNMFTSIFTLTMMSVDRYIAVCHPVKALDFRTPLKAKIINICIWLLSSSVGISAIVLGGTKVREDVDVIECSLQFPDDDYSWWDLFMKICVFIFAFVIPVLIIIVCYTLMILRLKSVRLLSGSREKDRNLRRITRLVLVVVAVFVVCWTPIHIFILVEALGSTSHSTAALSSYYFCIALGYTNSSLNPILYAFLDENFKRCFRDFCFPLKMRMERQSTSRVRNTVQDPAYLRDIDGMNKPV

Sequence of mu opioid receptor (P35372 whole entry): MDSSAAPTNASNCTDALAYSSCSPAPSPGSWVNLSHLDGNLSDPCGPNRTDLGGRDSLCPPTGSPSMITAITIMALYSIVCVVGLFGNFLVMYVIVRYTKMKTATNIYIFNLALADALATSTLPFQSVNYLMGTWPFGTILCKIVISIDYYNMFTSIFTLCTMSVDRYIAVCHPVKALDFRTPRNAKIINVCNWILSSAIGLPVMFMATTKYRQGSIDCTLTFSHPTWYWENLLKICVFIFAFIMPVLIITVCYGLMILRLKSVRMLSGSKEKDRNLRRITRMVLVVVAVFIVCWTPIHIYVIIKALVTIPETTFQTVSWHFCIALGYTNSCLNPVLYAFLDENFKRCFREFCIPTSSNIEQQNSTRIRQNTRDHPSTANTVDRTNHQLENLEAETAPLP

SMILES | Ki (mu opioid receptor) [nM] | IC50 (mu opioid receptor) [nM] | IC50 (kappa opioid receptor) [nM]
CNCCNC[C@@H](O)CN1CN(c2ccc(F)cc2)C2(CCN(Cc3cccc4cccc(C)c34)CC2)C1=O [compound 661] | 800 | – | –
CSc1cccc(C(=O)N(Cc2ccc(C)cc2)C[C@H](O)CN2CN(c3ccc(F)cc3)C3(CCN(CC4CCCCCCC4)CC3)C2=O)n1 [compound 455] | – | 5160 | 380
COc1cc(OC)c(CNC[C@H](O)CN2CN(c3ccc(F)cc3)C3(CCN(C4Cc5cccc6cccc4c56)CC3)C2=O)c(OC)c1 (mixture of isomers) [compound 367] | – | 1860 | 360
COc1ccc(CNC[C@@H](O)CN2CN(c3ccc(F)cc3)C3(CCN(Cc4cccc5cccc(C)c45)CC3)C2=O)cc1 [compound 392] | – | > 10000 | 1390
Cc1cccc2cccc(CN3CCC4(CC3)C(=O)N(C[C@H](O)CN(C)C)CN4c3ccc(F)cc3)c12 [Compound #441, 3-(3-Dimethylamino-2-(R)-hydroxy-propyl)-1-(4-fluoro-phenyl)-8-(8-methyl-naphthalen-1-ylmethyl)-1,3,8-triaza-spiro[4.5]decan-4-one] | – | > 10000 | > 10000
O=C(O)c1ccc(CNC[C@H](O)CN2CN(c3ccc(F)cc3)C3(CCN(CC4CCCCCCC4)CC3)C2=O)cc1 [compound 452] | – | 570 | 1520
COc1ccc(CCN(C)C[C@H](O)CN2CN(c3ccc(F)cc3)C3(CCN(Cc4ccc(Cl)cc4)CC3)C2=O)cc1OC [compound 270] | – | 410 | –
O=C1N(C[C@@H](O)CN(CCc2ccccc2)Cc2ccccc2)CN(c2ccccc2)C12CCN(CCc1ccccc1-c1cccs1)CC2 [compound 230] | – | 152 | –
COc1ccc(CCN(C)C[C@H](O)CN2CN(c3ccc(F)cc3)C3(CCN(Cc4ccc5ccccc5c4)CC3)C2=O)cc1OC [compound 263] | – | 590 | –
CN(C)c1ccc(CNC[C@@H](O)CN2CN(c3ccccc3)C3(CCN(CCc4ccccc4-c4cccs4)CC3)C2=O)cc1 [compound 139] | – | 103 | –
O=C1N(C[C@@H](O)CN2C=CCC2)CN(c2ccc(F)cc2)C12CCN(CC1CCCCCCC1)CC2 [compound 70] | – | 630 | –
COc1cc(CCNC[C@@H](O)CN2CN(c3ccc(F)cc3)C3(CCN(Cc4ccc(Cl)cc4)CC3)C2=O)c([N+](=O)[O-])cc1OC [compound 269] | – | 2490 | –
O=C1N(C[C@@H](O)CNCCN2CCOCC2)CN(c2ccc(F)cc2)C12CCN(Cc1ccc3ccccc3c1)CC2 [compound 259] | – | 500 | –
O=C1N(C[C@H](O)CNCCc2ccc3c(c2)OCO3)CN(c2ccc(F)cc2)C12CCN(Cc1ccc(Cl)cc1)CC2 [compound 268] | – | 950 | –
Cc1cccc2cccc(CN3CCC4(CC3)C(=O)N(C[C@H](O)CN3CCC(O)C3)CN4c3ccc(F)cc3)c12 (some centres unmarked) [compound 712] | 1950 | – | –
O=C1N(C[C@@H](O)CN(Cc2ccccc2)C[C@@H]2CCCC[C@@H]2O)CN(c2ccc(F)cc2)C12CCN(CC1CCCCCCC1)CC2 [compound 290] | – | 930 | –
CNC[C@@H](O)CN1CN(c2ccc(F)cc2)C2(CCN(Cc3cccc4cccc(C)c34)CC2)C1=O [Compound #660, 1-(4-Fluoro-phenyl)-3-(2-(R)-hydroxy-3-methylamino-propyl)-8-(8-methyl-naphthalen-1-ylmethyl)-1,3,8-triaza-spiro[4.5]decan-4-one] | 870 | – | –
Cc1cccc2cccc(CN3CCC4(CC3)C(=O)N(C[C@H](O)CN3CC[C@@H](N(C)C)C3)CN4c3ccc(F)cc3)c12 [compound 708] | 490 | – | –
COc1ccc(CCNC[C@@H](O)CN2CN(c3ccccc3)C3(CCN(CCc4ccccc4-c4cccs4)CC3)C2=O)cc1 [compound 145] | – | 104 | –
O=C1N(C[C@@H](O)CNCCc2ccc3c(c2)OCO3)CN(c2ccc(F)cc2)C12CCN(Cc1ccc3ccccc3c1)CC2 [compound 262] | – | 850 | –
O=C1N(C[C@H](O)CNCCc2cc3ccc(F)cc3[nH]2)CN(c2ccccc2)C12CCN(CCc1ccccc1-c1cccs1)CC2 [compound 142] | – | 104 | –

Source: US7582649B2, “Hydroxy alkyl substituted 1,3,8-triazaspiro[4.5]decan-4-one derivatives useful for the treatment of ORL-1 receptor mediated disorders” (Janssen Pharmaceutica, NV, priority 2002, dated 2009)
